Measured values published in patent publication KR20100130589A, “중독 치료에서의 aldh-2 저해제” (질레드 팔로 알토 인코포레이티드, priority 2008, dated 2009).
“Also recorded” adds a separate entry of the source.

Tests used:
[1] = Cocaine reinstatement (relapse) after extinction of intravenous cocaine self-administration; type: in vivo, Sprague-Dawley rat; settings: rat; for effect on cocaine-induced relapse, compared with Compound A (result in words): tested similarly
[2] = Nicotine intravenous self-administration; type: in vivo, Wistar-derived rat; settings: rat, escalating doses 0.00, 7.5, 10 and 15 mg/kg ip, 30 min before session; Figure 1
[3] = in vivo; cited from earlier work
[4] = biological target: T1, human mitochondrial aldehyde dehydrogenase (ALDH-2) [인간 미토콘드리아 알데히드 디히드로게나아제 (ALDH-2)] (Homo sapiens, UniProt P05091); settings: potency and selectivity in words; cited from earlier work
T1 sequence (P05091 18-517): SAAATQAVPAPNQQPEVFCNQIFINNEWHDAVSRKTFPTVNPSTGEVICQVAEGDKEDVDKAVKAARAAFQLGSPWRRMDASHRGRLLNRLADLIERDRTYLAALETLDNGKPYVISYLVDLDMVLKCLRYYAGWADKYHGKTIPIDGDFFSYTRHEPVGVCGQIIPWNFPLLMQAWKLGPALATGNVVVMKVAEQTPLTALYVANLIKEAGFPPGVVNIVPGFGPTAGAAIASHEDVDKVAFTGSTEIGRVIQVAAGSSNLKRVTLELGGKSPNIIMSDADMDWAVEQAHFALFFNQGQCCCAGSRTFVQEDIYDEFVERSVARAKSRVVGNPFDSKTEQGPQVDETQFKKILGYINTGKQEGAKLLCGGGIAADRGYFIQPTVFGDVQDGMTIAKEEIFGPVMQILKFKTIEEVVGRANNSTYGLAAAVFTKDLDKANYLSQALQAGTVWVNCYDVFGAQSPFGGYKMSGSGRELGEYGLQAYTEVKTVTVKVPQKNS

| SMILES | effect on cocaine-induced relapse, compared with Compound A (result in words) [1] | suppression of ethanol intake / absorption (in words) [3] | other results |
| --- | --- | --- | --- |
| O=C(O)c1cccc(-c2nc(COc3ccc4c(=O)c(-c5ccc(O)cc5)coc4c3)no2)c1 [3-(3-{[3-(4-히드록시페닐)-4-옥소크로멘-7-일옥시]메틸}-1,2,4-옥사디아졸-5-일)벤조산] | 유사한 결과가 수득되었다 | – | – |
| O=c1c(-c2ccc(O)cc2)coc2cc(OCc3noc(-c4cc(F)cc(C(F)(F)F)c4)n3)ccc12 [7-({5-[3-플루오로-5-(트리플루오로메틸)페닐](1,2,4-옥사디아졸-3-일)}메톡시)-3-(4-히드록시페닐)크로멘-4-온] | 유사한 결과가 수득되었다 | – | – |
| CS(=O)(=O)Nc1ccc(-c2coc3cc(OCc4cccc(C(=O)O)c4)ccc3c2=O)cc1 [3-[(3-{4-[(메틸술포닐)아미노]페닐}-4-옥소크로멘-7-일옥시)메틸]벤조산] | – | – | lever press response after cocaine priming (effect in words) ([1]; 7.5 and 10 mg/kg before priming injection of cocaine (10 mg/kg)): 지렛대 누름 반응에서 증가를 보여주지 않았다 (재발하지 않음); cocaine relapse (effect in words) ([1]; ip, dose-dependent, cocaine priming 10 mg/kg): 투여량에 좌우되어 코카인에 대한 재발을 차단했다; number of bar presses for nicotine (plotted as number of infusions) [2]: 횟수를 감소시켰다; also recorded: 바아 프레스의 횟수를 감소시키는 |
| O=c1c(-c2ccc(O)cc2)coc2cc(O[C@@H]3O[C@H](CO)[C@@H](O)[C@H](O)[C@H]3O)ccc12 [다이드진 (daidzein)] | – | 에탄올 섭취 억제에 효과적인 | – |
| O=c1c(-c2ccc(O)cc2)coc2cc(O)ccc12 [다이드진] | – | 에탄올 흡수 억제에 유효한 | inhibition of ALDH-2 (in words) [4]: 강력하고 선택적인 저해제 |
